# Assay results reported in patent US5610171A, “Inhibition of metastasis in patients having cancer with pyridyloxazole-2-ones” (Merrell Pharmaceuticals Inc., priority 1995, dated 1997).
# pIC50: −log10 of the molar value. Where two headings read alike, the source gives them in different places.
# System: B16F1 cells
# Test: Experimental lung metastasis assay (B16F1 cells treated in culture, then injected intravenously into C57BL/6 mice)
# Format: in vivo, murine (C57BL/6 mice)
# Conditions: for % Control (number of nodules) / Number of nodules per set of lungs, Mean +/- SE: 24 hours; for pIC50: cells exposed to drugs for 24 hours, nodules counted three weeks later, read-out: B16 Metastasis IC50
# Protocol: Experimental Metastasis Assay
# Sub-confluent B16F1 cells were harvested by washing with HBSS followed by trypsinization for 1 minute. The cells were sedimented by centrifugation (250 g, 5 minutes) and washed twice with HBSS. Viable cells were counted after dilution with trypan blue. A single-cell suspension of 10^5 cells in 0.2 ml HBSS was injected intravenously into 16-18 C57BL/6 mice via the tail vein. Three weeks later, the number of metastatic foci in the lung were counted.
compound,measurement,setting,value
"CCCc1[nH]c(=O)oc1-c1ccncc1 [Compound 1, 4-propyl-5(4-pyridinyl)-2(3H)-oxazolone]",% Control (number of nodules),1 μM,67%
same,"Number of nodules per set of lungs, Mean +/- SE",1 μM,12 +/- 2.8 nodules per set of lungs
same,% Control (number of nodules),5 μM,78%
same,"Number of nodules per set of lungs, Mean +/- SE",5 μM,14 +/- 3.3 nodules per set of lungs
same,% Control (number of nodules),10 μM,43%
same,"Number of nodules per set of lungs, Mean +/- SE",10 μM,7.8 +/- 2.1 nodules per set of lungs
same,% Control (number of nodules),20 μM,30%
same,"Number of nodules per set of lungs, Mean +/- SE",20 μM,5.4 +/- 1.1 nodules per set of lungs
same,% Control (number of nodules),50 μM,12%
same,"Number of nodules per set of lungs, Mean +/- SE",50 μM,2 +/- 0.6 nodules per set of lungs
same,inhibition of lung metastasis,"24 hours in culture, then intravenous injection into C57BL/6 mice",90%
same,pIC50,"Mus musculus, B16-F1, iv",5.17
same,number of lung metastases,"cells exposed in vitro, then injected into mice",diminished the number of lung metastases
same,pIC50,,5.15
same,incubation time for 50% of maximum inhibition of metastasis,time dependence of incubation,≤ 8 h
same,potency for inhibition of metastasis relative to H-7,versus H-7,more potent than H-7
same,potency for inhibition of metastasis relative to staurosporine,versus staurosporine,significantly less potent than staurosporine
